Results published in patent publication US9938249B2, “Anti-amyloid compounds containing benzofurazan” (Treventis Corporation, priority 2014, dated 2018).
pIC50: −log10 of the molar value.

Experiments:
[1] = target: Aβ40 (Homo sapiens, UniProt P05067); experiment: ThT Aβ aggregation assay (kinetic Thioflavin T fluorescence); type: biochemical; details: 20 μM Aβ, DMSO control at 80 hr = 0% inhibition, number in parenthesis = compound ID 1027 in that experiment; for inhibition at 10 µM: read-out: % inhib Thioflavin T Aβ 40 10 μM; for inhibition at 5 µM: 80 h, read-out: % inhib Thioflavin T Aβ 40 (5 μm)
Method: Preparation of Aβ40 Stock Solutions
Aβ40 (1.0 mg) was pre-treated in a 1.5 mL microfuge tube with HFIP (1 mL) and sonicated for 20 min to disassemble any pre-formed Aβ aggregates. The HFIP was removed with a stream of argon and the Aβ dissolved in Tris base (5.8 mL, 20 mM, pH ˜10). The pH was adjusted to 7.4 with concentrated HCl (˜10 μL) and the solution filtered using a syringe filter (0.2 μm) before being used.
The kinetic ThT assay for Aβ aggregation is similar to that of Chalifour et al (Chalifour et al, 2003, J. Biol. Chem. 278:34874-81). Briefly, pre-treated Aβ40 or Aβ42 (40 μM in 20 mM Tris, pH 7.4) was diluted with an equal volume of 8 μM Thioflavin T (ThT) in Tris (20 mM, pH 7.4, 300 mM NaCl). Aliquots of Aβ/ThT (200 μL) were added to wells of a black polystyrene 96-well plate, followed by 2 μL of a compound in DMSO (variable concentration), or DMSO alone (controls). Incubations were performed in triplicate and were taken to contain 20 μM Aβ, various concentration of compound in 20 mM Tris, pH 7.4, 150 mM NaCl, 1% DMSO. Plates were covered with clear polystyrene lids and incubated at 37° C. in a Tecan Genios microplate reader.
Analysis of ThT and ThS Aggregation Assays
Fluorescence readings (λex=450 nm, λem=480 nm) were taken every 15 min., after first shaking at high intensity for 15 s and allowing to settle for 10 s before each reading. Active compounds attenuated the increase in fluorescence over time that occurred in controls. In FIGS. 1-7, the time this procedure was performed extended to 80 hours (rightmost part of X-axis), at which point fluorescence increase generally reached an asymptote. Applying a definition of DMSO control at 80 hr as 100% aggregation (0% inhibition) and DMSO control at 0 hr as 0% aggregation (100% inhibition), a % inhibition score where higher is better can be calculated for a given concentration of compound. By repeating this procedure over several concentrations, a […] (IC50) can be measured, as is given in the table below for some compounds.

[2] = target: Terminally biotinylated beta-amyloid (Aβ42) (Homo sapiens, UniProt P05067); experiment: Aβ42 biotinylated (biotin-AB) oligomerization assay, NeutrAvidin capture ELISA; type: biochemical; details: approximate value; 1 hr oligomerization at room temperature; read-out: IC50 Aβ 42-bio
Outline: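 Biotin-Aβ42, pretreated with HFIP/TFA to remove seeds, oligomerized 1 h at room temperature with compound in 20 mM sodium phosphate pH 7.5, 150 mM NaCl (DMSO up to 1%). Oligomers captured on NeutrAvidin plates, detected with streptavidin-HRP/TMB at 450 nm; IC50 approximate, in µM.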

[3] = compound 5 μm (so in the source)

Chain of Aβ40 (P05067 672-711, species assumed): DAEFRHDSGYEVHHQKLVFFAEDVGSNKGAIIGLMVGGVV
Chain of Terminally biotinylated beta-amyloid (Aβ42) (P05067 672-713, species assumed): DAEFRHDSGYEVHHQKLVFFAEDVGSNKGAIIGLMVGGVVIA

SMILES	inhibition at 10 µM ([1]; compound 10 μM) [%]	pIC50 [2]	inhibition at 5 µM [1, 3] [%]	% inhib Thioflavin T Aβ 40 10 μM ([1]; compound 10 μM) [%]	% inhib Thioflavin T Aβ 40 (5 μm) [1, 3] [%]
CC(=O)Nc1ccc(-c2cc(N3CC(CN4CCCC4)C3)c3nonc3c2)cc1 [compound 1482]	41	5.26	–	–	–
CS(=O)(=O)N1CCC=C(c2cc(N3CC(CN4CCCC4)C3)c3nonc3c2)C1 [compound 1522]	44	5.00	–	–	–
CS(=O)(=O)c1cccc(-c2cc(N3CC(CN4CCCC4)C3)c3nonc3c2)c1 [compound 1479]	24	5.10	–	–	–
c1ccc2oc(-c3cc(N4CC(CN5CCCC5)C4)c4nonc4c3)cc2c1 [compound 1485]	26	5.58	–	–	–
c1cc(-c2cc(N3CC(CN4CCCC4)C3)c3nonc3c2)n[nH]1 [compound 1525]	63	4.88	–	–	–
COc1ccc(-c2cc(N3CC(CN4CCCC4)C3)c3nonc3c2)cc1Cl [compound 1492]	22	5.32	–	–	–
O=C(NC1CC1)c1cc(N2CC(CN3CCCC3)C2)c2nonc2c1 [compound 1541]	31	5.40	19	–	–
Clc1cc(Cl)cc(-c2cc(N3CC(CN4CCCC4)C3)c3nonc3c2)c1 [compound 1478]	63	5.74	–	–	–
c1ccc(Oc2ccc(-c3cc(N4CC(CN5CCCC5)C4)c4nonc4c3)cc2)cc1 [compound 1491]	32	6.28	–	–	–
CS(=O)(=O)c1ccccc1-c1cc(N2CC(CN3CCCC3)C2)c2nonc2c1 [compound 1481]	11	5.21	–	–	–
Brc1cc(N2CC(CN3CCCC3)C2)c2nonc2c1 [compound 1472, 6-bromo-4-(3-(pyrrolidin-1-ylmethyl)azetidin-1-yl)benzo[c][1,2,5]oxadiazole]	65	5.44	–	–	–
c1n[nH]cc1-c1cc(N2CC(CN3CCCC3)C2)c2nonc2c1 [compound 1526]	60	5.24	–	–	–
CN(C)CCCN(C)c1cc(-c2cccc(C(O)C(F)(F)F)c2)cc2nonc12 (centres unmarked) [compound 1465]	–	< 4.70	44	–	–
Cc1cc(C)cc(-c2cc(N3CC(CN4CCCC4)C3)c3nonc3c2)c1 [compound 1506]	44	5.35	–	–	–

The remaining lines, values ahead:

inhibition at 10 µM ([1]; compound 10 μM) [%]	pIC50 [2]	inhibition at 5 µM [1, 3] [%]	% inhib Thioflavin T Aβ 40 10 μM ([1]; compound 10 μM) [%]	% inhib Thioflavin T Aβ 40 (5 μm) [1, 3] [%]	SMILES
65	< 4.70	–	–	–	c1cc(-c2cc(N3CC(CN4CCCC4)C3)c3nonc3c2)co1 [compound 1510]
43	5.29	28	–	–	OC(c1ccccc1-c1cc(N2CCC(N3CCCC3)CC2)c2nonc2c1)C(F)(F)F (centres unmarked) [compound 1467]
74	5.05	–	–	–	c1csc(-c2cc(N3CC(CN4CCCC4)C3)c3nonc3c2)c1 [compound 1529]
32	4.71	–	–	–	c1ccc(-c2cc(N3CC(CN4CCCC4)C3)c3nonc3c2)cc1 [compound 1486]
48	4.97	–	–	–	O=C(C1CN(c2cc(-c3cccc(C(O)C(F)(F)F)c3)cc3nonc23)C1)N1CCCC1 (centres unmarked) [compound 1498]
65	5.62	44	–	–	OC(c1ccc(-c2cc(N3CCC(N4CCCC4)CC3)c3nonc3c2)cc1)C(F)(F)F (centres unmarked) [compound 1468]
67	5.46	–	–	–	CC(=O)N1C=C(c2cc(N3CC(CN4CCCC4)C3)c3nonc3c2)CCC1 [compound 1534]
49	5.12	–	–	–	Cn1cc(-c2cc(N3CC(CN4CCCC4)C3)c3nonc3c2)cn1 [compound 1527]
57	4.95	–	–	–	FC(F)(F)c1ccccc1-c1cc(N2CC(CN3CCCC3)C2)c2nonc2c1 [compound 1514]
–	5.46	–	74	71	OC(c1cc(-c2cc(N3CC(CN4CCCC4)C3)c3nonc3c2)cs1)C(F)(F)F (centres unmarked) [compound 1537]
61	4.83	–	–	–	CN1CCC=C(c2cc(N3CC(CN4CCCC4)C3)c3nonc3c2)C1 [compound 1524]
62	5.34	–	–	–	Clc1cccc(-c2cc(N3CC(CN4CCCC4)C3)c3nonc3c2)c1 [compound 1505]
34	5.80	–	–	–	CC(C)c1ccc(-c2cc(N3CC(CN4CCCC4)C3)c3nonc3c2)cc1 [compound 1489]
75	5.62	70	–	–	CN(CCCN1CCCC1)c1cc(-c2cccc(C(O)C(F)(F)F)c2)cc2nonc12 (centres unmarked) [compound 1469]
31	5.20	–	–	–	CC(=O)c1cccc(-c2cc(N3CC(CN4CCCC4)C3)c3nonc3c2)c1 [compound 1480]
35	< 4.70	–	–	–	OC(c1ccc(-c2cc(N3CCC(N4CCCC4)CC3)c3nonc3c2)s1)C(F)(F)F (centres unmarked) [compound 1464]
